Reference: patent US5853731A, “Thromboxane A2 Receptor antagonism and antioxidant action of cinnamophilin and its derivatives, their pharmaceutical compositions and uses” (National Science Council, priority 1997, dated 1998)

What was measured:
rat thoracic aorta = assay: Rat aortic contraction caused by norepinephrine and high potassium (KCl); format: cell-based, Wistar rat; settings: 15 min; for K+ contraction (%), Tonic: K+ (80 mM); for norepinephrine contraction (%), Phrase (phasic) / norepinephrine contraction (%), Tonic: norepinephrine 3 μM
Procedure: A. Rat Aortic Contraction
Wistar rats of either sex weighing 250 g to 300 g were killed by a blow to the head. The thoracic aorta was isolated and excess fat and connective tissue were removed. Vessels were cut into rings of about 5 mm in length and mounted in organ baths containing 5 ml Krebs solution of the following composition (mM): NaCl (118.4), KCl (4.7), CaCl (1.9), MgSO4 (1.2), KH2 PO4 (1.2), NaHCO3 (25.0) and glucose (11.7). The tissue bath solution was maintained at 37° C. and gassed with 95% O2 :5% CO2 mixture. Two stainless steel hooks were inserted into the aortic lumen, one was fixed while the other was connected to a transducer. Aortae were equilibrated in the medium for 90 min with three changes of Krebs solution and maintained under an optimal tension of 1 g before specific experimental protocols were initiated.
Contraction was recorded isometrically via a force-displacement transducer connected to a Grass polygraph. Aortae were allowed to preincubate for 15 minutes with cinnamophilin before generating the cumulative concentration-response curve with each agonist for 15-30 min at 3 min intervals. Results are expressed as a percentage of the maximal control response for each agonist.
Rat aorta ring were preincubated with lignans or DMSO (0.1% control) at
37° C. for 15 min, then the inducer was added.

rabbit platelets = assay: Aggregation of washed rabbit platelet suspension induced by AA, PAF, collagen, U-46619, ADP and thrombin; format: cell-based
Procedure: A. Preparation of aggregation inducing agent
1. Collagen (bovine tendon) in 15 mM aqueous acetic acid was homogenized at 4° C. to form a well dispersed suspension in 1 mg/ml and stocked at -70° C. Before using, it was thawed and well homogenized.
2. PAF was dissolved in CCl4 and stocked at […] Before using, it was diluted with deionized water.
3. […] and sodium arachidonate (AA) were dissolved in deionized water for use.
B. Preparation of platelets
A suspension of platelets was prepared according to the reported method. EDTA (100 mM) and the blood obtained from rabbit's ear vein were mixed in the ratio of 1:4, and immediately centrifuged (120× g) at room temperature for 10 minutes. Platelet-rich plasma was subjected to further centrifuge (500× g) for another 10 minutes. After the plasma was removed, the platelets in the lower layer were suspended in the Tyrode solution containing EDTA (2 mM) and bovine serum albumin (3.5 mg/ml), and subjected to centrifuge (500× g) again for 10 minutes. The platelets obtained were suspended in a Tyrode solution containing no EDTA, and was adjusted to about 4.5×10^8 cells/ml by a cell counter. 1 mM of calcium ion (Ca^2+) was added to the suspension. 30 minutes after the addition, the experiment was conducted. The composition of Tyrode […]: NaCl (136.9), KCl (2.7), NaH2 PO4 (0.4), NaHCO3 (11.9), glucose (11.1).
C. Platelet aggregation and ATP release reaction test
The method reported by Born (J. Physiol. 168, 178, 1963) was used to determine the platelet aggregation by a Lumi-aggregometer (Model 1020, Payton, Canada). Platelet suspension (0.4 ml) was added into a small glass tube coated with silicone, and stirred at 900 rpm with a small magnetic stirrer. Unless otherwise specified, the antagonist was added 1 minute before the inducing agent, and all the reactions were carried out at 37° C. The aggregation was calculated by following formula: […]
aggregation (% )=(light absorption before adding inducing agent-light absorption after adding inducing agent)/(light absorption before adding inducing agent-light absorption of Tyrode solution)×100% […]
| Platelets were precincubated with 1a, 1b, 1c, 1e, 2 or DMSO (0.5%, | control) at 37° C. for 3 min, then the inducer was added.

[1] = tested on: platelet aggregation, aortic contraction, tracheal contraction; assay: Bioassay / pharmacological evaluation (platelet aggregation, rat aortic contraction, guinea-pig tracheal contraction); settings: rat aortic and guinea-pig tracheal contraction bioassays
Procedure: The methods of isolation might be performed using polar organic solvent such as methanol, ethanol and acetone. Solvent of the extract from root parts of Cinnamomum philippinense was evaporated and the residue was suspended in water, and extracted with chloroform or other non-polar organic solvents. Bioassay was performed by using this chloroform layer in platelet aggregation test, rat aortic contraction, and guinea-pig tracheal contraction. Purified bioactive components were obtained through silica gel column, then afforded cinnamophilin (1), two known lignan compounds as (+)-guaiacin (3), meso-dihydroguaiaretic acid (2) and an aromatic acid as vallinic acid.
Compounds II-V wherein R1 represents H, C1-8 alkyl, --OCOR, wherein R2 represents OH, COO--, wherein R represents H, C1-8 alkyl. Preferred substituted alkyl group is 8 carbon number, optical alkyl group is 6 carbon number. Structures of these compounds were elucidated on the basis of their IR, UV, ^1 H-NMR, ^13 C-NMR, Mass spectra as well as the elemental analytical data.

thromboxane receptor = settings: Hoet et al., Blood 75, 646-53, 1990; read-out: IC50, thromboxane receptor inhibition; cited from earlier work
[2] = target: thromboxane A2 synthetase; settings: Hoet et al., Blood 75, 646-53, 1990; read-out: IC50, thromboxane A2 synthetase inhibition; cited from earlier work
[3] = Antioxidation (absorbance at 500 nm, FeSCN method); settings: 20 μM
Source text: (Absorbance at 500 nm, using FeSCN method)

[4] = compared with BHA or BHT; background statement; cited from earlier work
[5] = inducer AA (100 μM), conc 20 μM, control 92.1 ± 1.3
[6] = inducer ADP (20 μM), conc 300 μM, control 81.6 ± 3.0
[7] = inducer PAF (2 ng/ml), conc 300 μM, control 91.7 ± 2.0
[8] = inducer U-46619 (1 μM), conc 200 μM, control 89.4 ± 1.2
[9] = inducer collagen (10 μg/ml), conc 50 μM, control 93.6 ± 1.0
[10] = inducer collagen (10 μg/ml), conc 100 μM, control 93.6 ± 1.0
[11] = inducer collagen (10 μg/ml), conc 200 μM, control 93.6 ± 1.0
[12] = inducer thrombin (0.1 U/ml), conc 300 μM, control 94.8 ± 2.0
[13] = inducer AA (100 μM), conc 50 μM, control 92.1 ± 1.3
[14] = inducer AA (100 μM), conc 100 μM, control 92.1 ± 1.3
[15] = inducer AA (100 μM), conc 200 μM, control 92.1 ± 1.3

| Compound | K+ contraction (%), Tonic (rat thoracic aorta; conc 10 μM) [%] | norepinephrine contraction (%), Phrase (phasic) (rat thoracic aorta; conc 10 μM) [%] | norepinephrine contraction (%), Tonic (rat thoracic aorta; conc 10 μM) [%] | Aggregation (%) (rabbit platelets; [5]) | Aggregation (%) (rabbit platelets; [6]) | Aggregation (%) (rabbit platelets; [7]) | Aggregation (%) (rabbit platelets; [8]) | Aggregation (%) (rabbit platelets; [9]) | Aggregation (%) (rabbit platelets; [10]) | Aggregation (%) (rabbit platelets; [11]) | Aggregation (%) (rabbit platelets; [12]) | Aggregation (%) (rabbit platelets; [13]) | Aggregation (%) (rabbit platelets; [14]) | Aggregation (%) (rabbit platelets; [15]) | further results |
| --- | --- | --- | --- | --- | --- | --- | --- | --- | --- | --- | --- | --- | --- | --- | --- |
| COc1cc(C[C@@H](C)[C@@H](C)Cc2ccc(O)c(OC)c2)ccc1O [Compound 2, meso-dihydroguaiaretic acid, reference compound] | 14.8 ± 2.1 | 111.1 ± 6.2 | 78.4 ± 8.8 | 0.0 ± 0.0 | 67.9 ± 8.4 | 91.7 ± 2.0 | 88.6 ± 3.2 | 79.7 ± 4.7 | 16.4 ± 4.4 | 0.0 ± 0.0 | 85.3 ± 6.6 |  |  |  | K+ contraction (%), Tonic (rat thoracic aorta; conc 1 μM): 74.0 ± 4.1%; K+ contraction (%), Tonic (rat thoracic aorta; conc 3 μM): 36.5 ± 3.2%; K+ contraction (%), Tonic (rat thoracic aorta; conc 5 μM): 25.7 ± 3.9%; Aggregation (%) (rabbit platelets; inducer AA (100 μM), conc 5 μM, control 92.1 ± 1.3): 76.0 ± 7.8%; Aggregation (%) (rabbit platelets; inducer AA (100 μM), conc 10 μM, control 92.1 ± 1.3): 5.9 ± 5.3%; bioactivity [1]: has not been observed |
| COc1ccc(CC(C)C(C)C(=O)c2ccc(OC)c(OC)c2)cc1OC (stereo not shown) [Compound 4, dimethylcinnamophilin] | 10.5 | 61.3 ± 2.1 | 48.6 ± 3.3 | 87.8 ± 3.3 | 30.7 ± 13.0 | 0.0 ± 0.0 | 86.5 ± 1.7 | 86.2 ± 4.7 | 80.3 ± 3.6 | 7.5 ± 6.4 | 89.7 ± 3.5 | 75.8 ± 10.6 | 37.7 ± 1.6 | 0.0 ± 0.0 |  |
| COc1cc(CC(C)C(C)C(=O)c2ccc(OC(C)=O)c(OC)c2)ccc1OC(C)=O (stereo not shown) [Compound 5] | 18.4 ± 4.7 | 92.2 ± 13.4 | 64.6 ± 9.1 | 86.3 ± 4.6 | 60.7 ± 12.0 | 45.2 ± 9.2 | 88.4 ± 4.3 | 93.4 ± 1.2 | 80.6 ± 4.7 | 8.4 ± 7.3 | 94.9 ± 1.0 | 57.8 ± 2.8 | 0.0 ± 0.0 |  |  |
| COc1cc(CC(C)C(C)C(O)c2ccc(O)c(OC)c2)ccc1O (stereo not shown) [Compound 7, cinnamophilinol] | 66.8 ± 2.2 | 100 | 113.3 ± 7.5 | 86.3 ± 1.0 | 77.3 ± 4.0 | 79.7 ± 6.6 | 90.4 ± 1.4 | 89.7 ± 3.4 | 75.5 ± 2.4 | 0.0 ± 0.0 | 73.2 ± 6.8 | 75.5 ± 6.2 | 10.4 ± 9.0 | 0.0 ± 0.0 | K+ contraction (%), Tonic (rat thoracic aorta; conc 50 μM): 51.0 ± 4.4%; norepinephrine contraction (%), Phrase (phasic) (rat thoracic aorta; conc 50 μM): 95.5 ± 3.2%; norepinephrine contraction (%), Tonic (rat thoracic aorta; conc 50 μM): 85.3 ± 10.4% |
| O=C(O)CCCCO/N=C(/c1cccnc1)c1cccc(C(F)(F)F)c1 [ridogrel] |  |  |  |  |  |  |  |  |  |  |  |  |  |  | IC50 (thromboxane receptor): 2000 nM; IC50 [2]: 5 nM |
| Cc1c(C)c2c(c(C)c1O)CCC(C)(CCCC(C)CCCC(C)CCCC(C)C)O2 (stereo not drawn) [vitamin E, α-tocopherol, reference compound] |  |  |  |  |  |  |  |  |  |  |  |  |  |  | Absorbance at 500 nm ([3]; induce time 0, control 0.047): 0.026; Absorbance at 500 nm ([3]; induce time 4, control 0.084): 0.069; Absorbance at 500 nm ([3]; induce time 7, control 0.201): 0.083; Absorbance at 500 nm ([3]; induce time 10, control 0.343): 0.108; Absorbance at 500 nm ([3]; induce time 16): 0.176; Absorbance at 500 nm ([3]; induce time 19): 0.226; Absorbance at 500 nm ([3]; induce time 22): 0.297; Absorbance at 500 nm ([3]; induce time 25): 0.487; Absorbance at 500 nm ([3]; induce time 28): 1.024; antioxidative action on fatty oils [4]: lower than BHA (t-butylhydroxyanisole) or BHT (t-butylhydroxy toluene) |
